Experimental data reported in patent publication US10597388B2, “Pyridazinone herbicides” (FMC CORPORATION, priority 2014, dated 2020).

Columns and labels:
Format in all cases: in vivo
[1] = tested on: sedge, umbrella (small-flower umbrella sedge, Cyperus difformis); assay: Test B flooded paddy test; details: 250 g ai/ha, Flood; visual rating on scale of 0 to 100 where 0 is no effect and 100 is complete control; 13 to 15 d after treatment
Method in brief: (§1)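 Plants at the 2-leaf stage were flooded to 3 cm above soil, and test compounds were applied directly into the paddy water, which was held at that depth throughout. After 13 to 15 d in a greenhouse, injury was rated visually against untreated controls on a 0–100 scale (0 no effect, 100 complete control).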

[2] = tested on: barnyardgrass (Echinochloa crus-galli); assay: Test B flooded paddy test; details: 250 g ai/ha, Flood; visual rating on scale of 0 to 100 where 0 is no effect and 100 is complete control; 13 to 15 d after treatment
Method in brief: as §1

rice (Oryza sativa) = assay: Test B flooded paddy test; details: 250 g ai/ha, Flood; visual rating on scale of 0 to 100 where 0 is no effect and 100 is complete control; 13 to 15 d after treatment
Method in brief: as §1

[3] = tested on: ducksalad (Heteranthera limosa); assay: Test B flooded paddy test; details: 250 g ai/ha, Flood; visual rating on scale of 0 to 100 where 0 is no effect and 100 is complete control; 13 to 15 d after treatment
Method in brief: as §1

[4] = tested on: ryegrass, Italian (Italian ryegrass, Lolium multiflorum); assay: Test A greenhouse herbicide test, pre- and postemergence
From the text: (§2) Seeds of plant species selected from barnyardgrass (Echinochloa crus-galli), kochia (Kochia scoparia), ragweed (common ragweed, Ambrosia elatior), ryegrass, Italian (Italian ryegrass, Lolium multiflorum), crabgrass, large (large crabgrass, Digitaria sanguinalis), foxtail, giant (giant foxtail, Setaria faberii), momingglory (Ipomoea spp.), pigweed (Amaranthus retroflexus), velvetleaf (Abutilon theophrasti), wheat (Triticum aestivum), and corn (Zea mays) were planted into a blend of loam soil and sand and treated preemergence with a directed soil spray using test chemicals formulated in a non-phytotoxic solvent mixture which included a surfactant.
(§3) At the same time, plants selected from these crop and weed species and also blackgrass (Alopecurus myosuroides), and galium (catchweed bedstraw, Galium aparine) were planted in pots containing the same blend of loam soil and sand and treated with postemergence applications of test chemicals formulated in the same manner. Plants ranged in height from 2 to 10 cm and were in the one- to two-leaf stage for the postemergence treatment. Treated plants and untreated controls were maintained in a greenhouse for approximately 10 d, after which time all treated plants were compared to untreated controls and visually evaluated for injury. Plant response ratings, summarized in Table A, are based on a 0 to 100 scale where 0 is no effect and 100 is complete control. A dash (-) response means no test result.

corn (Zea mays) = assay: as above; details: Postemergence; for Corn plant response rating: 0 is no effect, 100 is complete control
From the text: as §2, §3

[5] = tested on: wheat (Triticum aestivum); assay: as above; details: Postemergence; for Wheat plant response rating: 0 is no effect, 100 is complete control
From the text: as §2, §3

[6] = tested on: ragweed (common ragweed, Ambrosia elatior); assay: as above
From the text: as §2, §3

[7] = tested on: barnyardgrass (Echinochloa crus-galli); assay: as above
From the text: as §2, §3

kochia (Kochia scoparia) = assay: as above
From the text: as §2, §3

[8] = tested on: pigweed (Amaranthus retroflexus); assay: as above
From the text: as §2, §3

[9] = tested on: foxtail, giant (giant foxtail, Setaria faberii); assay: as above
From the text: as §2, §3

[10] = tested on: galium (catchweed bedstraw, Galium aparine); assay: Test A greenhouse herbicide test, postemergence; details: for Galium plant response rating: 0 is no effect, 100 is complete control
Method in brief: (§4)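 Greenhouse postemergence test: formulated chemicals sprayed on one- to two-leaf plants (2 to 10 cm), grown in loam soil blended with sand. Injury assessed visually about 10 d later against untreated controls, scored 0 (no effect) to 100 (complete control).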

[11] = tested on: blackgrass (Alopecurus myosuroides); assay: Test A greenhouse herbicide test, postemergence; details: for Blackgrass plant response rating: 0 is no effect, 100 is complete control
Method in brief: as §4

[12] = Postemergence, 125 g ai/ha, 0 to 100 scale where 0 is no effect and 100 is complete control
[13] = Postemergence, 500 g ai/ha, 0 to 100 scale, 0 is no effect, 100 is complete control
[14] = Preemergence, 125 g ai/ha, 0 to 100 scale where 0 is no effect and 100 is complete control
[15] = Preemergence, 500 g ai/ha, 0 to 100 scale, 0 no effect, 100 complete control
[16] = 125 g ai/ha, 0 to 100 scale where 0 is no effect and 100 is complete control
[17] = Postemergence, 125 g ai/ha, 0 to 100 scale, 0 no effect, 100 complete control
[18] = Postemergence, 500 g ai/ha, visual rating after approx. 10 d, 0 to 100 scale (0 no effect, 100 complete control)
[19] = Preemergence, 125 g ai/ha, visual injury rating, 0 to 100 scale (0 no effect, 100 complete control), approx. 10 d
[20] = Preemergence, 500 g ai/ha, 0 to 100 scale where 0 is no effect and 100 is complete control
[21] = 125 g ai/ha, 0 to 100 scale, 0 no effect, 100 complete control
[22] = 500 g ai/ha, visual rating after approx. 10 d, 0 to 100 scale (0 no effect, 100 complete control)
[23] = Postemergence, 1000 g ai/ha, 0 to 100 scale, 0 is no effect, 100 is complete control
[24] = Preemergence, 1000 g ai/ha, 0 to 100 scale, 0 no effect, 100 complete control

Cc1cc(C)c2c(-c3c(OC(=O)C(C)(C)C)c(C)nn(C)c3=O)c(C)sc2c1 [Compound 45]
Plant response rating, Sedge, Umbrella [1]: 0
Plant response rating, Barnyardgrass [2]: 0
Plant response rating, Rice (rice (Oryza sativa)): 0
Plant response rating, Ducksalad [3]: 0
Plant response rating, Ryegrass, Italian [4, 12]: 0
Ryegrass, Italian plant response rating [4, 13]: 0
Ryegrass, Italian plant response rating [4, 14]: 0
Plant response rating, Ryegrass, Italian [4, 15]: 0
Plant response rating, Corn (corn (Zea mays); [16]): 0
Corn plant response rating (corn (Zea mays); 500 g ai/ha, 0 to 100 scale): 0
Plant response rating, Wheat [5, 16]: 0
Wheat plant response rating ([5]; 500 g ai/ha, 0 to 100 scale): 0
Plant response rating, Ragweed [6, 12]: 0
Ragweed plant response rating [6, 13]: 0
Ragweed plant response rating [6, 14]: 0
Plant response rating, Ragweed [6, 15]: 0
Plant response rating, Barnyardgrass [7, 12]: 0
Barnyardgrass plant response rating [7, 13]: 0
Barnyardgrass plant response rating [7, 14]: 0
Plant response rating, Barnyardgrass [7, 15]: 0
Plant response rating, Kochia (kochia (Kochia scoparia); [12]): 0
Kochia plant response rating (kochia (Kochia scoparia); [13]): 0
Kochia plant response rating (kochia (Kochia scoparia); [14]): 0
Plant response rating, Kochia (kochia (Kochia scoparia); [15]): 0
Plant response rating, Pigweed [8, 12]: 0
Pigweed plant response rating [8, 13]: 0
Pigweed plant response rating [8, 14]: 0
Plant response rating, Pigweed [8, 15]: 0
Plant response rating, Foxtail, Giant [9, 12]: 0
Foxtail, Giant plant response rating [9, 13]: 0
Foxtail, Giant plant response rating [9, 14]: 0
Plant response rating, Foxtail, Giant [9, 15]: 0
Plant response rating, Galium [10, 16]: 0
Galium plant response rating ([10]; 500 g ai/ha, 0 to 100 scale): 0
Plant response rating, Blackgrass [11, 16]: 0
Blackgrass plant response rating ([11]; 500 g ai/ha, 0 to 100 scale): 0

Cc1ccc2sc(C)c(-c3c(OCC#N)c(C)nn(C)c3=O)c2c1 [Compound 160]
Plant response rating, Sedge, Umbrella [1]: 0
Plant response rating, Barnyardgrass [2]: 0
Plant response rating, Rice (rice (Oryza sativa)): 0
Plant response rating, Ducksalad [3]: 0
Plant response rating, Ryegrass, Italian [4, 17]: 30
Plant response rating, Ryegrass, Italian [4, 18]: 90
Plant response rating, Ryegrass, Italian [4, 19]: 20
Plant response rating, Ryegrass, Italian [4, 20]: 80
Plant response rating, Corn (corn (Zea mays); [21]): 0
Plant response rating, Corn (corn (Zea mays); [22]): 0
Plant response rating, Wheat [5, 21]: 0
Plant response rating, Wheat [5, 22]: 0
Plant response rating, Ragweed [6, 17]: 70
Plant response rating, Ragweed [6, 18]: 80
Plant response rating, Ragweed [6, 19]: 30
Plant response rating, Ragweed [6, 20]: 80
Plant response rating, Barnyardgrass [7, 17]: 10
Plant response rating, Barnyardgrass [7, 18]: 20
Plant response rating, Barnyardgrass [7, 19]: 10
Plant response rating, Barnyardgrass [7, 20]: 10
Plant response rating, Kochia (kochia (Kochia scoparia); [17]): 30
Plant response rating, Kochia (kochia (Kochia scoparia); [18]): 60
Plant response rating, Kochia (kochia (Kochia scoparia); [19]): 20
Plant response rating, Kochia (kochia (Kochia scoparia); [20]): 20
Plant response rating, Pigweed [8, 17]: 80
Plant response rating, Pigweed [8, 18]: 90
Plant response rating, Pigweed [8, 19]: 50
Plant response rating, Pigweed [8, 20]: 100
Plant response rating, Foxtail, Giant [9, 17]: 10
Plant response rating, Foxtail, Giant [9, 18]: 20
Plant response rating, Foxtail, Giant [9, 19]: 10
Plant response rating, Foxtail, Giant [9, 20]: 30
Plant response rating, Galium [10, 21]: 70
Plant response rating, Galium [10, 22]: 90
Plant response rating, Blackgrass [11, 21]: 10
Plant response rating, Blackgrass [11, 22]: 20

CCc1ccc2ccc(C)cc2c1-c1c(O)c(C)nn(C)c1=O [Compound 103]
Plant response rating, Sedge, Umbrella [1]: 50
Plant response rating, Barnyardgrass [2]: 30
Plant response rating, Rice (rice (Oryza sativa)): 0
Plant response rating, Ducksalad [3]: 0
Plant response rating, Ryegrass, Italian [4, 12]: 100
Plant response rating, Ryegrass, Italian [4, 18]: 100
Ryegrass, Italian plant response rating [4, 14]: 90
Plant response rating, Ryegrass, Italian [4, 20]: 100
Plant response rating, Corn (corn (Zea mays); [16]): 20
Plant response rating, Corn (corn (Zea mays); [22]): 60
Plant response rating, Wheat [5, 16]: 0
Plant response rating, Wheat [5, 22]: 20
Plant response rating, Ragweed [6, 12]: 100
Plant response rating, Ragweed [6, 18]: 100
Ragweed plant response rating [6, 14]: 90
Plant response rating, Ragweed [6, 20]: 100
Plant response rating, Barnyardgrass [7, 12]: 40
Barnyardgrass plant response rating [7, 13]: 90
Barnyardgrass plant response rating [7, 14]: 40
Plant response rating, Barnyardgrass [7, 20]: 90
Plant response rating, Kochia (kochia (Kochia scoparia); [12]): 50
Plant response rating, Kochia (kochia (Kochia scoparia); [18]): 90
Kochia plant response rating (kochia (Kochia scoparia); [14]): 20
Plant response rating, Kochia (kochia (Kochia scoparia); [20]): 40
Plant response rating, Pigweed [8, 12]: 90
Plant response rating, Pigweed [8, 18]: 100
Pigweed plant response rating [8, 14]: 100
Plant response rating, Pigweed [8, 20]: 100
Plant response rating, Foxtail, Giant [9, 12]: 90
Plant response rating, Foxtail, Giant [9, 18]: 90
Foxtail, Giant plant response rating [9, 14]: 80
Plant response rating, Foxtail, Giant [9, 20]: 100
Plant response rating, Galium [10, 16]: 100
Plant response rating, Galium [10, 22]: 100
Plant response rating, Blackgrass [11, 16]: 70
Blackgrass plant response rating ([11]; 500 g ai/ha, 0 to 100 scale): 90

CC(=O)Oc1c(C)nn(C)c(=O)c1-c1ccc(Cl)c2ccccc12 [Compound 157]
Plant response rating, Sedge, Umbrella [1]: 75
Plant response rating, Barnyardgrass [2]: 20
Plant response rating, Rice (rice (Oryza sativa)): 0
Plant response rating, Ducksalad [3]: 0
Plant response rating, Ryegrass, Italian [4, 17]: 100
Plant response rating, Ryegrass, Italian [4, 18]: 100
Plant response rating, Ryegrass, Italian [4, 19]: 100
Plant response rating, Ryegrass, Italian [4, 20]: 100
Plant response rating, Corn (corn (Zea mays); [21]): 0
Plant response rating, Corn (corn (Zea mays); [22]): 40
Plant response rating, Wheat [5, 21]: 0
Plant response rating, Wheat [5, 22]: 50
Plant response rating, Ragweed [6, 17]: 100
Plant response rating, Ragweed [6, 18]: 100
Plant response rating, Ragweed [6, 19]: 60
Plant response rating, Ragweed [6, 20]: 90
Plant response rating, Barnyardgrass [7, 17]: 50
Plant response rating, Barnyardgrass [7, 18]: 80
Plant response rating, Barnyardgrass [7, 19]: 70
Plant response rating, Barnyardgrass [7, 20]: 90
Plant response rating, Kochia (kochia (Kochia scoparia); [17]): 100
Plant response rating, Kochia (kochia (Kochia scoparia); [18]): 100
Plant response rating, Kochia (kochia (Kochia scoparia); [19]): 100
Plant response rating, Kochia (kochia (Kochia scoparia); [20]): 100
Plant response rating, Pigweed [8, 17]: 90
Plant response rating, Pigweed [8, 18]: 100
Plant response rating, Pigweed [8, 19]: 100
Plant response rating, Pigweed [8, 20]: 100
Plant response rating, Foxtail, Giant [9, 17]: 60
Plant response rating, Foxtail, Giant [9, 18]: 80
Plant response rating, Foxtail, Giant [9, 19]: 50
Plant response rating, Foxtail, Giant [9, 20]: 80
Plant response rating, Galium [10, 21]: 100
Plant response rating, Galium [10, 22]: 100
Plant response rating, Blackgrass [11, 21]: 60
Plant response rating, Blackgrass [11, 22]: 70

Cc1nn(C)c(=O)c(-c2cccc3ccccc23)c1OCC=Cc1ccccc1 [Compound 180]
Plant response rating, Sedge, Umbrella [1]: 0
Plant response rating, Barnyardgrass [2]: 0
Plant response rating, Rice (rice (Oryza sativa)): 0
Plant response rating, Ducksalad [3]: 0
Ryegrass, Italian plant response rating [4, 23]: 70
Plant response rating, Ryegrass, Italian [4, 24]: 50
Corn plant response rating (corn (Zea mays); 1000 g ai/ha, 0 to 100 scale): 0
Wheat plant response rating ([5]; 1000 g ai/ha, 0 to 100 scale): 0
Ragweed plant response rating [6, 23]: 0
Plant response rating, Ragweed [6, 24]: 40
Barnyardgrass plant response rating [7, 23]: 0
Plant response rating, Barnyardgrass [7, 24]: 0
Kochia plant response rating (kochia (Kochia scoparia); [23]): 40
Plant response rating, Kochia (kochia (Kochia scoparia); [24]): 0
Pigweed plant response rating [8, 23]: 50
Plant response rating, Pigweed [8, 24]: 40
Foxtail, Giant plant response rating [9, 23]: 0
Plant response rating, Foxtail, Giant [9, 24]: 10
Galium plant response rating ([10]; 1000 g ai/ha, 0 to 100 scale): 80
Blackgrass plant response rating ([11]; 1000 g ai/ha, 0 to 100 scale): 30
